Reference: patent publication US12466810B2, “N-(5-(6-ethoxypyrazin-2-yl)pyridin-2-yl)-4-(2-(methylsulfonamido)pyrimidin-4-yl) tetrahydro-2H-pyran-4-carboxamide derivatives and related compounds as human CTPS1 inhibitors for the treatment of proliferative diseases” (Step Pharma S.A.S., priority 2019, dated 2025)

Key:
human CTPS1 = biological target: T1, human CTPS1 (Homo sapiens, UniProt P17812); test: Human CTPS1 enzyme inhibition (ADP-Glo Max assay); type: biochemical; settings: 25° C., read-out: Human CTPS1 Enzyme Inhibition IC50, grouped by potency range
T1 construct: FLAG (GG linker + DYKDDDDK); His8 (GG linker + HHHHHHHH); purchased Proteros biostructures GmbH
T1 sequence (P17812 1-591): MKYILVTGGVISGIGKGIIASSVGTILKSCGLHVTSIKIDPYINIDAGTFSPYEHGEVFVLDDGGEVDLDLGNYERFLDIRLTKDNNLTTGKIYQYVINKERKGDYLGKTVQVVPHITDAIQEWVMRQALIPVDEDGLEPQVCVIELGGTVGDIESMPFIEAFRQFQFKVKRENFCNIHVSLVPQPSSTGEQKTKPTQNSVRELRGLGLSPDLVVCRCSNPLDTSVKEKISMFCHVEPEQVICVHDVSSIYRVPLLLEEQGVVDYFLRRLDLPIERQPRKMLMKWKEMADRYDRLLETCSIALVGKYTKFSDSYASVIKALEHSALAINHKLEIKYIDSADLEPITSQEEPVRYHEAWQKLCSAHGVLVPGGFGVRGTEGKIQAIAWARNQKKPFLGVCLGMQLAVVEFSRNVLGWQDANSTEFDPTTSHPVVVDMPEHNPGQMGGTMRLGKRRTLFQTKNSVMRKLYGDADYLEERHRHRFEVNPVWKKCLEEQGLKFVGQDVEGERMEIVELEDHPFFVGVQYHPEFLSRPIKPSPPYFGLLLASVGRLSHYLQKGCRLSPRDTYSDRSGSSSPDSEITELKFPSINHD
Description: The enzyme inhibitory activities of compounds invented against the target of interest were determined using the ADP-Glo™ Max assay (Promega, UK). Assays for human CTPS1 were performed in 1× assay buffer containing 50 mM Tris, 10 mM MgCl2, 0.01% Tween-20, pH to 8.0 accordingly. Finally, immediately before use, L-cysteine was added to the 1× assay buffer to a final concentration of 2 mM. All reagents are from Sigma-Aldrich unless specified otherwise.
Human full length active C-terminal FLAG-Hiss-tag CTPS1 (UniProtKB—P17812, CTPS1[1-591]-[…] (CTPS1[1-591]-SEQ ID NO: 1)) was obtained from Proteros biostructures GmbH.
3× human CTPS1 protein was prepared in 1× assay buffer to the final working protein concentration required for the reaction. A 2 uL volume per well of 3× human CTPS1 protein was mixed with 2 uL per well of 3× test compound (compound prepared in 1× assay buffer to an appropriate final 3× compound concentration respective to the concentration response curve designed for the compounds under test) for 10 minutes at 25° C. The enzymatic reaction was then initiated by addition of a 2 uL per well volume of a pre-mixed substrate mix (UltraPure ATP from ADP-GIo™ Max kit (0.31 mM), GTP (0.034 mM), UTP (0.48 mM) and L-glutamine (0.186 mM)) and the mixture was incubated for an appropriate amount of time within the determined linear phase of the reaction at 25° C. under sealed plate conditions with constant agitation at 500 revolutions per minute (rpm). ADP-GIo™ Max reagent was added for 60 minutes (6 μL per well) and subsequently ADP-GIo™ Max development reagent was added for 60 minutes (12 uL per well) prior to signal detection in a microplate reader (EnVision® Multilabel Reader, Perkin Elmer). Following each reagent addition over the course of the assay, assay plates were pulse centrifuged for 30 seconds at 500 rpm.
In all cases, the enzyme converts ATP to ADP and the ADP-Glo™ Max reagent subsequently depletes any remaining endogenous ATP in the reaction system. The ADP-Glo™ Max detection reagent converts the ADP that has been enzymatically produced back into ATP and using ATP as a substrate together with luciferin for the enzyme luciferase, light is generated which produces a detectable luminescence. […] The percentage inhibition produced by each concentration of compound was calculated using the equation shown below: […]
(§1) Percentage inhibition was then plotted against compound concentration, and the 50% inhibitory concentration (IC50) was determined from the resultant concentration-response curve.

Human CTPS1 Versus CTPS2 = test: RapidFire/MS-based enzyme selectivity assay, human CTPS1 versus CTPS2; type: biochemical; settings: RapidFire/MS IC50s
Description: Human CTPS1 Versus CTPS2 Selectivity Assessment by RapidFire/MS Analysis.
The enzyme inhibitory activities against each target isoform of interest may be determined for the compounds of the invention using an optimised RapidFire high-throughput mass spectrometry (RF/MS) assay format. RF/MS assays for both human CTPS1 and CTPS2 may be performed in assay buffer consisting of 50 mM HEPES (Merck), 20 mM MgCl2, 5 mM KCl, 1 mM DTT, 0.01% Tween-20, pH to 8.0 accordingly. Human full-length active C-terminal FLAG-His-tag CTPS1 (UniProtKB—P17812, CTPS1[1-591]-[…] (CTPS1[1-591]-SEQ ID NO: 1)) may be obtained from Proteros biostructures GmbH. Human full length active C-terminal FLAG-His-Avi tagged CTPS2 (UniProtKB—Q9NRF8, CTPS2 [1-586]—[…] (CTPS2 [1-586]-SEQ ID NO: 2)) may be obtained from Harker Bio.
Human CTPS (1 or 2) protein may be prepared in 1× assay buffer to the final working protein concentration required for the reaction. A 2 uL volume per well of 2×CTPS (1 or 2) protein may be mixed with 40 nL of compound using acoustic (ECHO) delivery and incubated for 10 minutes at 25° C. Each isoform enzymatic reaction may be subsequently initiated by addition of 2 uL per well of a 2× substrate mix in assay buffer. For hCTPS1: ATP (0.3 mM), UTP (0.2 mM), GTP (0.07 mM) and L-glutamine (0.1 mM). For hCTPS2: ATP (0.1 mM), UTP (0.04 mM), GTP (0.03 mM) and L-glutamine (0.1 mM). Each mixture may be incubated for an appropriate amount of time per isoform within the determined linear phase of the reaction at 25° C. A 60 uL volume of stop solution (1% formic acid with 0.5 uM ^13C9-^15N3-CTP in H2O) may be added and the plate immediately heat-sealed and centrifuged for 10 minutes at 4,000 rpm. Following centrifugation, plates may be loaded onto the Agilent RapidFire microfluidic solid phase extraction system coupled to an API4000 triple quadrupole mass spectrometer (RF/MS) for analysis.
In all cases, the enzyme converts UTP to CTP. Highly specific and sensitive multiple reaction monitoring (MRM) MS methods may be optimised for the detection of the enzymatic reaction product, CTP, and the stable isotope labelled product standard ^13C-^15N-CTP. Readout for data analysis may be calculated as the ratio between the peak area of the product CTP and the internal standard […]. For data reporting, the following equation may be used: […]
For each screening plate, the means of the negative (DMSO) and positive control values were used for the calculation of the respective assay window (S/B) and Z′ values. The median of the respective control values was used for calculation of percent inhibition according to the following equation: […]
as §1
Fold selectivity between CTPS1 and CTPS2 was subsequently calculated according to the following equation: […]

Row | IC50 (human CTPS1) | Fold selectivity between CTPS1 and CTPS2 (CTPS1) (Human CTPS1 Versus CTPS2) | Compound
1 | 0.1 to 1 µM |  | CCOc1cncc(-c2ccc(NC(=O)C3(c4ccnc(NS(=O)(=O)CC5CC5)n4)CCOCC3)nc2)n1 [P263, 4-(2-(cyclopropylmethylsulfonamido)pyrimidin-4-yl)-N-(5-(6-ethoxypyrazin-2-yl)pyridin-2-yl)tetrahydro-2H-pyran-4-carboxamide]
2 | 0.1 to 1 µM | +++ (>60 fold (+++)) | CCOc1cncc(-c2ccc(NC(=O)C3(c4ccnc(NS(=O)(=O)C(C)(C)C)n4)CCOCC3)nc2)n1 [P246, 4-(2-((1,1-dimethylethyl)sulfonamido)pyrimidin-4-yl)-N-(5-(6-ethoxypyrazin-2-yl)pyridin-2-yl)tetrahydro-2H-pyran-4-carboxamide]
3 | 0.1 to 1 µM | +++ (>60 fold (+++)) | CCOc1cncc(-c2ccc(NC(=O)C3(c4ccnc(NS(=O)(=O)CC(C)C)n4)CCOCC3)nc2)n1 [P250, N-(5-(6-ethoxypyrazin-2-yl)pyridin-2-yl)-4-(2-((2-methylpropyl)sulfonamido)pyrimidin-4-yl)tetrahydro-2H-pyran-4-carboxamide]
4 | ≤ 0.1 µM | +++ (>60 fold (+++)) | CCOc1cncc(-c2ccc(NC(=O)C3(c4nccc(NS(=O)(=O)C5CC5)n4)CCOCC3)nc2)n1 [P243, 4-(4-(cyclopropanesulfonamido)pyrimidin-2-yl)-N-(5-(6-ethoxypyrazin-2-yl)pyridin-2-yl)tetrahydro-2H-pyran-4-carboxamide]
5 | ≤ 0.1 µM | +++ (>60 fold (+++)) | CCOc1cncc(-c2ccc(NC(=O)C3(c4ccnc(NS(C)(=O)=O)n4)CCOCC3)nc2)n1 [P236, N-(5-(6-ethoxypyrazin-2-yl)pyridin-2-yl)-4-(2-(methylsulfonamido)pyrimidin-4-yl)tetrahydro-2H-pyran-4-carboxamide]
6 | ≤ 0.1 µM | +++ (>60 fold (+++)) | O=C(Nc1ccc(-c2cncc(C3CC3)n2)cn1)C1(c2ccnc(NS(=O)(=O)C3CC3)n2)CCOCC1 [P252, 4-(2-(cyclopropanesulfonamido)pyrimidin-4-yl)-N-(5-(6-cyclopropylpyrazin-2-yl)pyridin-2-yl)tetrahydro-2H-pyran-4-carboxamide]
7 | ≤ 0.1 µM | +++ (>60 fold (+++)) | CCOc1cncc(-c2ccc(NC(=O)C3(c4ccnc(NS(=O)(=O)C5CC5)n4)CCC3)nc2)n1 [P241, 1-(2-(cyclopropanesulfonamido)pyrimidin-4-yl)-N-(5-(6-ethoxypyrazin-2-yl)pyridin-2-yl)cyclobutane-1-carboxamide]
8 | 0.1 to 1 µM |  | CCOc1cncc(-c2ccc(C(=O)NC3(c4ccnc(NS(=O)(=O)C5CC5)n4)CC3)nc2)n1 [P257, N-(1-(2-(cyclopropanesulfonamido)pyrimidin-4-yl)cyclopropyl)-5-(6-ethoxypyrazin-2-yl)picolinamide]
9 | 0.1 to 1 µM | +++ (>60 fold (+++)) | CCOc1cncc(-c2ccc(NC(=O)C3(c4ccnc(NS(=O)(=O)C5CCCC5)n4)CCOCC3)nc2)n1 [P245, 4-(2-(cyclopentanesulfonamido)pyrimidin-4-yl)-N-(5-(6-ethoxypyrazin-2-yl)pyridin-2-yl)tetrahydro-2H-pyran-4-carboxamide]
10 | ≤ 0.1 µM | +++ (>60 fold (+++)) | CCOc1cncc(-c2ccc(NC(=O)C3(c4ccnc(NS(=O)(=O)C5CC5)n4)CCN(C(C)=O)CC3)nc2)n1 [P234, 1-Acetyl-4-(2-(cyclopropanesulfonamido)pyrimidin-4-yl)-N-(5-(6-ethoxypyrazin-2-yl)pyridin-2-yl)piperidine-4-carboxamide]
11 | 0.1 to 1 µM | +++ (>60 fold (+++)) | CCOc1cncc(-c2ccc(C(=O)NC3(c4ccnc(NS(=O)(=O)C5CC5)n4)CCOCC3)nc2)n1 [P249, N-(4-(2-(cyclopropanesulfonamido)pyrimidin-4-yl)tetrahydro-2H-pyran-4-yl)-5-(6-ethoxypyrazin-2-yl)picolinamide]
12 | ≤ 0.1 µM |  | CCOc1cncc(-c2ccc(NC(=O)C3(c4ccnc(NS(=O)(=O)CC)n4)CCOCC3)nc2)n1 [P262, N-(5-(6-ethoxypyrazin-2-yl)pyridin-2-yl)-4-(2-(ethylsulfonamido)pyrimidin-4-yl)tetrahydro-2H-pyran-4-carboxamide]
13 | ≤ 0.1 µM |  | CCOc1cncc(-c2ccc(NC(=O)C3(c4ccnc(NS(=O)(=O)C5CC5)n4)CCS(=O)(=O)CC3)nc2)n1 [P259, 4-(2-(cyclopropanesulfonamido)pyrimidin-4-yl)-N-(5-(6-ethoxypyrazin-2-yl)pyridin-2-yl)tetrahydro-2H-thiopyran-4-carboxamide 1,1-dioxide]

Row | Compound | IC50 (human CTPS1) | Fold selectivity between CTPS1 and CTPS2 (CTPS1) (Human CTPS1 Versus CTPS2)
14 | CCOc1cncc(-c2ccc(NC(=O)C3(c4ccnc(NS(=O)(=O)C5CC5)n4)CCN(C)CC3)nc2)n1 [P231, 4-(2-(Cyclopropanesulfonamido)pyrimidin-4-yl)-N-(5-(6-ethoxypyrazin-2-yl)pyridin-2-yl)-1-methylpiperidine-4-carboxamide] | 0.1 to 1 µM | +++ (>60 fold (+++))
15 | CCOc1cncc(-c2ccc(NC(=O)C3(c4ccnc(NS(=O)(=O)C5CC5)n4)CCN(C(C)C)CC3)nc2)n1 [P232, 4-(2-(Cyclopropanesulfonamido)pyrimidin-4-yl)-N-(5-(6-ethoxypyrazin-2-yl)pyridin-2-yl)-1-isopropylpiperidine-4-carboxamide] | 0.1 to 1 µM | +++ (>60 fold (+++))
